Where two headings read alike, the source gives them in different places.
Columns and labels:
Type in all cases: biochemical
MMP-1 = biological target: T1, MMP-1 (Homo sapiens, UniProt P03956); experiment: MMP-1 inhibitory action (Type I collagen Activity Measurement kit, FITC-labeled collagen type I)
T1 sequence (P03956 100-469): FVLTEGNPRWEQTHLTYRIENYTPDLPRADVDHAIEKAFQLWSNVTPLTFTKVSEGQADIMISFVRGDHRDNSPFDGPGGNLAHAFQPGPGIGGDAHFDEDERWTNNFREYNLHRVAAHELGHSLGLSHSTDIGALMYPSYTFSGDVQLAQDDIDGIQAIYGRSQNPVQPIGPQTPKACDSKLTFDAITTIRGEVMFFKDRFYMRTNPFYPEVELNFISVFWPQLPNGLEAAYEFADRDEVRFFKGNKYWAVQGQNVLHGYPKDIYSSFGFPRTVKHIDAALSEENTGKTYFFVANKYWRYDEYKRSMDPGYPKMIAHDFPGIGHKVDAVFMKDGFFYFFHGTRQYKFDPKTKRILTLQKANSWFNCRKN

aggrecanase-1 = biological target: T2, aggrecanase-1 (Homo sapiens, UniProt O75173); experiment: Aggrecanase-1 inhibitory action (Particle Assay, GAG release from aggrecan-containing polyacrylamide particles)
T2 sequence (O75173 213-837): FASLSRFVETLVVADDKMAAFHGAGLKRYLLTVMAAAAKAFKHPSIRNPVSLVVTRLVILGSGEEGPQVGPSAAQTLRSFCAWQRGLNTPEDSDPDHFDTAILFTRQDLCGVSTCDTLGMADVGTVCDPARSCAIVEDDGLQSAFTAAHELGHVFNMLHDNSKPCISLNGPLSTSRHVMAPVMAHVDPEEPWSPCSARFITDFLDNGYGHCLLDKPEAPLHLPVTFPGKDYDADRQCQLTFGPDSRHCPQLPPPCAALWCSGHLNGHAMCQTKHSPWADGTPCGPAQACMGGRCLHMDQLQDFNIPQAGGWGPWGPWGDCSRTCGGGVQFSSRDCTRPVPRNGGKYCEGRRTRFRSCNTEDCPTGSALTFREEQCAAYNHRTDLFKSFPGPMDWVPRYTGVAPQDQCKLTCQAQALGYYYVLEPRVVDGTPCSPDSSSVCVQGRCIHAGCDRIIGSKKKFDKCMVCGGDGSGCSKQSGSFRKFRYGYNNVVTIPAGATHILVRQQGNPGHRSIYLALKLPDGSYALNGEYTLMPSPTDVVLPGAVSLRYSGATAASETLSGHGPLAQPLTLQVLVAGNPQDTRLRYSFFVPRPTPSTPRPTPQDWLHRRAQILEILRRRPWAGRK
Summary of the method: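 Readout was dimethylmethylene blue absorbance (595 nm) of glycosaminoglycan liberated into supernatant, calibrated with whale chondroitin sulfate. Substrate was aggrecan in polyacrylamide particles, digested 15 h at 37° C in Tris-HCl; TC50 (μM) derived from inhibition relative to no-enzyme and no-inhibitor controls.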

Recombinant Human MMP-13 = biological target: T3, Recombinant Human MMP-13 (Homo sapiens, UniProt P45452); experiment: MMP-13 inhibitory activity (MMP-13 specific fluorescent substrate with quencher)
T3 construct: purchased R&D systems 511-MM
Summary of the method: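 IC50 (μM) derived from % inhibition, normalised to wells without enzyme and without inhibitor, fluorescence read at 325/405 nm. Enzyme and compound preceded addition of the quenched 7-MCA…DPA substrate; Tris-HCl buffer, 25 °C for 1 h, acetic-acid stop.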

[1] = MMP-1 inhibitory action, FITC-labeled collagen type I, 37° C. for 3 hr, read-out: IC50 MMP1 (Experimental Example 2)
[2] = aggrecanase-1 inhibitory action, read-out: IC50 AG1 (Experimental Example 1)
[3] = Recombinant Human MMP-13, fluorescent substrate, 25° C. for 1 h, read-out: IC50 MMP13 (Experimental Example 3)
[4] = Experimental Example 2, read-out: IC50 MMP1
[5] = Experimental Example 1, read-out: IC50 AG1
[6] = Experimental Example 3, read-out: IC50 MMP13

Row | SMILES | IC50 (MMP-1; [1]) | IC50 (aggrecanase-1; [2]) | IC50 (Recombinant Human MMP-13; [3]) | IC50 (MMP-1; [4]) | IC50 (aggrecanase-1; [5]) | IC50 (Recombinant Human MMP-13; [6])
1 | CN1CCN(C(=O)c2cccc(C3CC3(NS(=O)(=O)c3ccc(-c4ccc(Cl)cc4)s3)C(=O)O)c2)CC1 (stereo not drawn) [Example 2-200] | ≥ 10000 nM | < 1000 nM | < 1000 nM | – | – | –
2 | Cc1nc(-c2ccc(S(=O)(=O)N[C@@]3(C(=O)O)C[C@@H]3c3ccccc3)s2)cs1 [Example 2-50] | ≥ 10000 nM | ≥ 1000 nM | ≥ 1000 nM | – | – | –
3 | O=C(O)[C@]1(NS(=O)(=O)c2ccc(-c3noc(C(F)(F)C(F)(F)F)n3)s2)C[C@@H]1c1ccccc1 [Example 2-45] | ≥ 10000 nM | ≥ 1000 nM | ≥ 1000 nM | – | – | –
4 | CN(C)C(=O)CCc1ccc([C@H]2C[C@@]2(NS(=O)(=O)c2ccc(-c3cc(C(F)(F)F)on3)s2)C(=O)O)cc1 [Example 2-282] | – | – | – | < 1000 nM | < 100 nM | < 100 nM
5 | O=C(O)C1(NS(=O)(=O)c2ccc(-c3cc(C(F)(F)F)on3)s2)CC1c1cc(CO)on1 (stereo not drawn) [Example 2-317] | – | – | – | ≥ 1000 nM | < 1000 nM | < 1000 nM
6 | O=C(O)[C@]1(NS(=O)(=O)c2ccc(-c3cc(CF)on3)s2)C[C@@H]1c1ccccc1 [Example 2-98] | ≥ 1000 nM | < 100 nM | < 100 nM | – | – | –
7 | O=C(O)C1(NS(=O)(=O)c2ccc(-c3cc(C(F)(F)F)on3)s2)C2CCCc3ccccc3C21 (stereo not drawn) [Example 2-305] | – | – | – | ≥ 1000 nM | < 100 nM | < 100 nM
8 | O=C(O)C1(NS(=O)(=O)c2ccc(-c3ccc(OC(F)(F)F)cc3)s2)CC1c1ccccc1 (stereo not drawn) [Example 2-17] | ≥ 10000 nM | ≥ 1000 nM | < 100 nM | – | – | –
9 | C[C@]1(c2ccccc2)C[C@@]1(NS(=O)(=O)c1ccc(-c2ccc(Cl)cn2)s1)C(=O)O [Example 2-131] | ≥ 1000 nM | < 100 nM | < 1000 nM | – | – | –
10 | CN(C)c1cc(-c2ccc(S(=O)(=O)N[C@@]3(C(=O)O)C[C@]3(C)c3ccccc3)s2)no1 [Example 2-423] | – | – | – | < 1000 nM | < 1000 nM | < 100 nM
11 | Cc1nc(-c2ccc(S(=O)(=O)N[C@@]3(C(=O)O)C(C)[C@@H]3c3ccccc3)s2)no1 (stereo partly drawn) [Example 2-451] | – | – | – | ≥ 10000 nM | ≥ 1000 nM | ≥ 1000 nM
12 | CC1(C)COC(c2ccccc2C2CC2(NS(=O)(=O)c2ccc(-c3ccc(Cl)cc3)s2)C(=O)O)=N1 (stereo not drawn) [Example 2-77] | ≥ 1000 nM | < 100 nM | < 1000 nM | – | – | –
13 | CC(C)(CO)NC(=O)c1ccccc1C1CC1(NS(=O)(=O)c1ccc(-c2ccc(Cl)cc2)s1)C(=O)O (stereo not drawn) [Example 2-78] | ≥ 10000 nM | < 100 nM | < 1000 nM | – | – | –
14 | CN(C)C(=O)OCC1(c2ccccc2)CC1(NS(=O)(=O)c1ccc(-c2cc(C(F)(F)F)on2)s1)C(=O)O (stereo not drawn) [Example 2-320] | – | – | – | ≥ 1000 nM | < 1000 nM | < 1000 nM
15 | O=C(O)[C@]1(NS(=O)(=O)c2ccc3c(c2)Cc2cc(Cl)ccc2-3)C[C@@H]1c1ccccc1 [Example 2-142] | ≥ 1000 nM | < 100 nM | < 1000 nM | – | – | –
16 | CC1[C@H](c2ccccc2)[C@]1(NS(=O)(=O)N1CCN(c2ccc(Br)cc2)CC1)C(=O)O (stereo partly drawn) [Example 2-458] | – | – | – | ≥ 10000 nM | < 1000 nM | < 100 nM
17 | CC(C)(CO)NC(=O)c1cccc(C2CC2(NS(=O)(=O)c2ccc(-c3ccc(Cl)cc3)s2)C(=O)O)c1 (stereo not drawn) [Example 2-74] | ≥ 10000 nM | < 1000 nM | < 100 nM | – | – | –
18 | O=C(O)C1(NS(=O)(=O)c2ccc(-c3ccc(Cl)cc3)cc2)CC1c1cccc(Oc2cccnc2)c1 (stereo not drawn) [Example 1-68] | ≥ 1000 nM | < 1000 nM | < 100 nM | – | – | –
19 | CC(C)(C)OC(=O)Nc1ccccc1C1CC1(NS(=O)(=O)c1ccc(-c2ccc(Cl)cc2)s1)C(=O)O (stereo not drawn) [Example 2-217] | ≥ 10000 nM | < 1000 nM | < 1000 nM | – | – | –
20 | O=C(O)C1(NS(=O)(=O)c2ccc(-c3cc(C(F)(F)F)on3)s2)CC1c1ccccc1CCO (stereo not drawn) [Example 2-240] | ≥ 1000 nM | < 1000 nM | < 1000 nM | – | – | –

Row | SMILES | IC50 (MMP-1; [1]) | IC50 (aggrecanase-1; [2]) | IC50 (Recombinant Human MMP-13; [3]) | IC50 (MMP-1; [4]) | IC50 (aggrecanase-1; [5]) | IC50 (Recombinant Human MMP-13; [6])
21 | O=C(O)C1(NS(=O)(=O)N2CCc3c([nH]c4ccccc34)C2)CC1c1ccccc1 (stereo not drawn) [Example 2-125] | ≥ 10000 nM | ≥ 10000 nM | ≥ 10000 nM | – | – | –
22 | COc1cc(-c2ccc(S(=O)(=O)N[C@@]3(C(=O)O)C[C@]3(C)c3ccccc3)s2)ccc1Cl [Example 2-516] | – | – | – | ≥ 1000 nM | < 1000 nM | < 1000 nM
23 | CC(C)S(=O)(=O)CC1(c2ccccc2)CC1(NS(=O)(=O)c1ccc(-c2ccc(Cl)cc2)s1)C(=O)O (stereo not drawn) [Example 2-348] | – | – | – | ≥ 10000 nM | < 1000 nM | < 1000 nM
24 | NC(=O)Cc1ccc([C@@H]2C[C@]2(NS(=O)(=O)c2ccc(-c3cc(C(F)(F)F)on3)s2)C(=O)O)cc1 [Example 2-292] | – | – | – | < 1000 nM | < 100 nM | < 100 nM
25 | NCCCC1(c2ccccc2)CC1(NS(=O)(=O)c1ccc(-c2ccc(Cl)cc2)s1)C(=O)O (stereo not drawn) [Example 2-285] | – | – | – | ≥ 1000 nM | < 1000 nM | ≥ 1000 nM
26 | O=C(O)C1(NS(=O)(=O)N2CC=C(c3ccc(Cl)cc3)CC2)CC1c1ccccc1 (stereo not drawn) [Example 2-149] | ≥ 10000 nM | ≥ 1000 nM | < 100 nM | – | – | –
27 | O=C(O)CSCC1(c2ccccc2)CC1(NS(=O)(=O)c1ccc(-c2cc(C(F)(F)F)on2)s1)C(=O)O (stereo not drawn) [Example 2-410] | – | – | – | ≥ 1000 nM | < 100 nM | ≥ 1000 nM
28 | O=C(Cc1cccc(C2CC2(NS(=O)(=O)c2ccc(-c3cc(C(F)(F)F)on3)s2)C(=O)O)c1)N1CCOCC1 (stereo not drawn) [Example 2-220] | ≥ 1000 nM | < 100 nM | < 100 nM | – | – | –
29 | Cc1nc(-c2ccc(S(=O)(=O)NC3(C(=O)O)CC3c3ccccc3)s2)co1 (stereo not drawn) [Example 2-87] | ≥ 10000 nM | ≥ 10000 nM | ≥ 1000 nM | – | – | –
30 | CC1[C@H](c2ccccc2)[C@]1(NS(=O)(=O)N1CCCN(c2ccc(Cl)cn2)CC1)C(=O)O (stereo partly drawn) [Example 2-461] | – | – | – | ≥ 10000 nM | < 1000 nM | ≥ 1000 nM
31 | O=C(O)C1(NS(=O)(=O)c2ccc(-c3ccc(Cl)cc3)s2)CC1c1cccc(Oc2cccnc2)c1 (stereo not drawn) [Example 1-88] | ≥ 10000 nM | < 100 nM | < 1000 nM | – | – | –
32 | CC(=O)c1ccc(S(=O)(=O)N[C@@]2(C(=O)O)C(C)[C@@H]2c2ccccc2)s1 (stereo partly drawn) [Example 2-425] | – | – | – | ≥ 10000 nM | ≥ 10000 nM | ≥ 1000 nM
33 | C[C@]1(c2ccc(F)cc2)C[C@@]1(NS(=O)(=O)c1ccc(-c2cc(C(F)(F)F)on2)s1)C(=O)O [Example 2-621] | – | – | – | < 1000 nM | < 100 nM | < 100 nM
34 | O=C(O)C1(NS(=O)(=O)c2ccc(-c3cc(C(F)(F)F)on3)s2)C2CCC(O)c3ccccc3C21 (stereo not drawn) [Example 2-437] | – | – | – | < 1000 nM | < 100 nM | < 100 nM
35 | O=C(Nc1cccc(C2CC2(NS(=O)(=O)c2ccc(-c3ccc(Cl)cc3)cc2)C(=O)O)c1)c1ccccn1 (stereo not drawn) [Example 1-62] | ≥ 1000 nM | < 1000 nM | < 100 nM | – | – | –
36 | CC1(c2cccc(Cl)c2)CC1(NS(=O)(=O)c1ccc(-c2cc(C(F)(F)F)on2)s1)C(=O)O (stereo not drawn) [Example 2-612] | – | – | – | < 1000 nM | < 100 nM | ≥ 1000 nM
37 | O=C(O)C1(NS(=O)(=O)c2ccc(-c3ccc(Cl)cc3)s2)CC1(CCCn1cccn1)c1ccccc1 (stereo not drawn) [Example 2-273] | – | – | – | < 1000 nM | < 100 nM | < 100 nM
38 | COc1cccc(C2(C)CC2(NS(=O)(=O)c2ccc(-c3cc(C(F)(F)F)on3)s2)C(=O)O)c1 (stereo not drawn) [Example 2-610] | – | – | – | < 1000 nM | < 100 nM | ≥ 1000 nM
39 | CC(C)(O)COc1cccc(C2CC2(NS(=O)(=O)c2ccc(-c3ccc(Cl)cc3)s2)C(=O)O)c1 (stereo not drawn) [Example 2-42] | ≥ 10000 nM | < 100 nM | < 100 nM | – | – | –
40 | O=C(O)C1(NS(=O)(=O)c2ccc(-c3cc(C(F)(F)F)on3)s2)CC1c1cc(CCO)on1 (stereo not drawn) [Example 2-315] | – | – | – | ≥ 10000 nM | < 1000 nM | < 1000 nM
